Read-outs that look alike come from different tables or passages of the source.
Key:
[1] = molecular target: T1, triton-extracted alpha-synuclein from PD Tissue (Homo sapiens, UniProt P37840); assay: Alpha-synuclein tissue homogenate binding assay (Assay 1), displacement of [^3H]-1000; conditions: for Selectivity ratio (Assay 2/Assay 1): Aβ Tissue Ki / α-synuclein Tissue Ki; for Ki: read-out: α-synuclein Tissue Ki (Assay 1)
T1 construct: tissue Analytic Biological Services Inc; host or cells: human PD temporal cortex grey matter, Triton X-100 insoluble pellet
Description: Frozen human brain tissues from PD patients were purchased from Analytic Biological Services Inc. The samples were post-mortem tissues from donors with clinical diagnosis of late stage of PD. Alpha-synuclein, tau and amyloid burden was determined through a combination of immunohistochemistry on frozen thin coronal sections, as well as alpha Lisa-based quantification of protein levels in a detergent insoluble protein fraction. A tissue sample of temporal cortex was identified from one donor as having moderate to high alpha-synuclein burden, low amyloid and minimal to no tau pathology. The detergent insoluble fraction of temporal cortex from this patient was used to support homogenate binding studies. Grey matter was dissected out of the temporal cortex tissue with a dissecting blade and minced with fine dissecting scissors. […] Homogenates were centrifuged at 100,000×g for 45 minutes. The pellet was resuspended in TBS-TX buffer, using a Polytron at highest setting for 30 seconds at 4° C. Homogenates were centrifuged at 100,000×g for 45 minutes and the pellet was resuspended in TBS-TX buffer. A BCA protein assay was performed on the final homogenate to determine the protein concentration. […] For displacement a-synuclein binding assay, compounds and control were solvated in dimethyl sulfoxide (DMSO) and transferred using focused acoustic energy by an Echo 655 liquid handling instrument (Beckman Coulter, Indianapolis, IN) into designated wells of uniquely bar coded 96-well v-bottom low binding polypropylene microplates (Thermo Scientific, 249946). Compound dose response curves were prepared in a 10-point, 3-fold fashion within columns 2-11 of the microplate from high to low compound concentrations. […] Liquid-handling steps for dispensing insoluble fractions of PD brain homogenates and radioligand were performed using a Bravo automated liquid handling platform equipped with a 96LT disposable tip head (Agilent Technologies, Santa Clara. CA). […] The incubation was terminated by rapid filtration through UniFilter-96 GF/C microplates (pre-treated for 30 minutes with 0.2% Polyethylenimine at 4° C.) by using a FilterMate Harvester (PerkinElmer). […] The bottom of each UniFilter-96 GF/C microplate was adhesively sealed (PerkinElmer 6005199) prior to the addition of 50 μL MicroScint-20 liquid scintillation cocktail (PerkinElmer 6013621) to each well. A clear adhesive seal (TopSeal-A PLUS, PerkinElmer 6050185) was then applied to the top of each microplate and counted 1 minute/well on MicroBeta^2 system (PerkinElmer.

[2] = molecular target: aggregated beta amyloid in AD tissue (Homo sapiens, UniProt P05067); assay: Competitive radioligand binding to pathological aggregated beta amyloid in AD tissue (Assay 2), displacement of [^3H]-105; conditions: Aβ-rich AD frontal cortex homogenate, [^3H]-105, Kd 11.0 nM
Description: Frozen human brain samples of Alzheimer's disease (AD) were purchased from Analytic Biological Services Inc. The samples were post-mortem tissue from donors with clinical diagnosis of AD and much of the white matter was dissected out of the frontal cortex in order to enrich the tissue preparations for gray matter. Brain homogenates of gray matter enriched frontal cortex were prepared by homogenizing the tissue in ice cold Phosphate Buffered Saline (PBS), pH 7.4 at 80 mg wet weight tissue per 1 ml for 45 seconds at 4° C., on setting 16 of Polytron. The homogenate was further diluted with ice cold PBS to 30 mg wet weight tissue per 1 ml and homogenized for an additional minute as described above. Homogenates were aliquoted in 5 ml/tube and stored at −70° C. until use.
Radioligand [^3H]-105, prepared as described in ACS Med. Chem. Lett., Vol. 2, pages 498-502, was used in this assay.
For Assay 2 unlabeled test compounds were dissolved in DMSO at 10 mM. Dilutions of tests compounds to various concentrations were made in 100% DMSO at 1000× final assay concentration and 0.225 μl aliquots were dispensed into assay plates. Brain homogenates were diluted to 0.5 mg/ml from original 30 mg/ml volume in Assay Buffer, and 200 μl were added to the assay plate for a final concentration of 100 ug wet weight/assay well. [^3H]-105 was prepared at 10× final concentration in Assay Buffer plus 20% DMSO and 25 μl was added to the assay plate for final assay concentration of 3.0 nM. The plates were incubated at 37° C. for 90 minutes. Unbound and bound ligand were separated by filtration of bound onto GF/B filter plates (pre-treated for 30 min with 0.1% PEI) using a Packard Filtermate and washing away unbound with 2.5 mil ice cold 5 mM Tris at pH 7.4. Filter plates were dried for 1 hr at 57° C. and 50 μl Microscint was added to each well of the plate. The plates were counted for ^3H cpm for 1 min per well using PerkinElmer TopCount.

[3] = insoluble fraction of PD brain homogenate, [^3H]-1000 3.0 nM, Kd 0.90 nM

Chain of aggregated beta amyloid in AD tissue (P05067 672-711 limits assumed): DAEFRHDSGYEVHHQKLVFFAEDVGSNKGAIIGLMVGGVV

Compound | Selectivity ratio (Assay 2/Assay 1) [1] | Ki [1, 3] [nM] | Ki [2] [nM] | Ki [1] [nM]
COC[C@H]1CN(c2cc(F)ccn2)CCN1c1ncc(/C=C/c2ccc(-n3ccnc3)nc2)cn1 [Example 17, (R,E)-5-(2-(6-(1H-imidazol-1-yl)pyridin-3-yl)vinyl)-2-(4-(4-fluoropyridin-2-yl)-2-(methoxymethyl)piperazin-1-yl)pyrimidine] | 13333 |  | ≥ 12000 | 
COC[C@H]1CN(c2ccccn2)CCN1c1ncc(/C=C/c2ccc(-n3cnnc3)nc2)cn1 [Example 5, (R,E)-5-(2-(6-(4H-1,2,4-triazol-4-yl)pyridin-3-yl)vinyl)-2-(2-(methoxymethyl)-4-(pyridin-2-yl)piperazin-1-yl)pyrimidine] | 7500 | 1.6 | ≥ 12000 | 
FCCOC[C@H]1CN(c2ncc(C#Cc3ccc(-n4cnnc4)nc3)cn2)CCN1c1ncccn1 [Example 71, (R)-5-((6-(4H-1,2,4-triazol-4-yl)pyridin-3-yl)ethynyl)-2-(3-((2-fluoroethoxy)methyl)-4-(pyrimidin-2-yl)piperazin-1-yl)pyrimidine] | 293 | 4.09 | ≥ 1200 | 
FCCOC[C@H]1CN(c2ncc(/C=C/c3ccc(-c4cnco4)nc3)cn2)CCN1c1ncncn1 [Example 41, (R,E)-5-(5-(2-(2-(3-((2-fluoroethoxy)methyl)-4-(1,3,5-triazin-2-yl)piperazin-1-yl)pyrimidin-5-yl)vinyl)pyridin-2-yl)oxazole] | 1500 | 0.8 | ≥ 1200 | 
FCCOC[C@H]1CN(c2ncc(C#Cc3ccc(N4CCn5cnnc5C4)nc3)cn2)CCN1c1ncncn1 [Example 75, (R)-7-(5-((2-(3-((2-fluoroethoxy)methyl)-4-(1,3,5-triazin-2-yl)piperazin-1-yl)pyrimidin-5-yl)ethynyl)pyridin-2-yl)-5,6,7,8-tetrahydro-[1,2,4]triazolo[4,3-a]pyrazine] | 1312 | 0.915 | ≥ 1200 | 
COC[C@H]1CN(c2ccccn2)CCN1c1ncc(/C=C/c2ccc(-c3ncco3)nc2)cn1 [Example 20, (R,E)-2-(5-(2-(2-(2-(methoxymethyl)-4-(pyridin-2-yl)piperazin-1-yl)pyrimidin-5-yl)vinyl)pyridin-2-yl)oxazole] | 7059 | 1.7 | ≥ 12000 | 
COC[C@H]1CN(c2ncc(/C=C/c3ccc(-n4ccnc4)nc3)cn2)CCN1c1ccnc(F)n1 [Example 34, (R,E)-4-(4-(5-(2-(6-(1H-imidazol-1-yl)pyridin-3-yl)vinyl)pyrimidin-2-yl)-2-(methoxymethyl)piperazin-1-yl)-2-fluoropyrimidine] | 6667 | 1.8 | ≥ 12000 | 
FCCOC[C@H]1CN(c2ncccn2)CCN1c1ncc(/C=C/c2ccc(-n3ccnc3)nc2)cn1 [Example 30, (R,E)-5-(2-(6-(1H-imidazol-1-yl)pyridin-3-yl)vinyl)-2-(2-((2-fluoroethoxy)methyl)-4-(pyrimidin-2-yl)piperazin-1-yl)pyrimidine] | 12000 | 1 | ≥ 12000 | 
Cc1cn(-c2ccc(/C=C/c3cnc(N4CCN(c5ncccn5)[C@@H](COCCF)C4)nc3)cn2)cn1 [Example 40, (R,E)-2-(3-((2-fluoroethoxy)methyl)-4-(pyrimidin-2-yl)piperazin-1-yl)-5-(2-(6-(4-methyl-1H-imidazol-1-yl)pyridin-3-yl)vinyl)pyrimidine] | 2857 |  | ≥ 1200 | 0.42
COCc1cnc(N2CCN(c3ncc(/C=C/c4ccc(-n5ccnc5)nc4)cn3)[C@@H](COC)C2)nc1 [Example 9, (R,E)-5-(2-(6-(1H-imidazol-1-yl)pyridin-3-yl)vinyl)-2-(2-(methoxymethyl)-4-(5-(methoxymethyl)pyrimidin-2-yl)piperazin-1-yl)pyrimidine] | 15000 | 0.8 | ≥ 12000 | 
COCCOC[C@H]1CN(c2ncc(C#Cc3ccc(-n4ccnc4)nc3)c(F)n2)CCN1c1ncncn1 [Example 80, (R)-2-(4-(5-((6-(1H-imidazol-1-yl)pyridin-3-yl)ethynyl)-4-fluoropyrimidin-2-yl)-2-((2-methoxyethoxy)methyl)piperazin-1-yl)-1,3,5-triazine] | 794 | 1.51 | ≥ 1200 | 
COC[C@H]1CN(c2cc(Cl)ncn2)CCN1c1ncc(/C=C/c2ccc(-n3ccnc3)nc2)cn1 [Example 14, (R,E)-5-(2-(6-(1H-imidazol-1-yl)pyridin-3-yl)vinyl)-2-(4-(6-chloropyrimidin-4-yl)-2-(methoxymethyl)piperazin-1-yl)pyrimidine] | 9231 | 1.3 | ≥ 12000 | 
COC[C@H]1CN(c2ncc(C#Cc3ccc(-n4ccnc4)nc3)cn2)CCN1c1ncccn1 [Example 11, (R)-5-((6-(1H-imidazol-1-yl)pyridin-3-yl)ethynyl)-2-(3-(methoxymethyl)-4-(pyrimidin-2-yl)piperazin-1-yl)pyrimidine] | 10909 | 1.1 | ≥ 12000 | 
COC[C@H]1CN(c2ncc(C#Cc3ccc(-n4ccnc4)nc3)cn2)CCN1c1nccc(F)n1 [Example 60, (R)-2-(4-(5-((6-(1H-imidazol-1-yl)pyridin-3-yl)ethynyl)pyrimidin-2-yl)-2-(methoxymethyl)piperazin-1-yl)-4-fluoropyrimidine] | 538 | 2.23 | ≥ 1200 | 
OC[C@H]1CN(c2ncc(C#Cc3ccc(-n4ccnc4)nc3)cn2)CCN1c1ncccn1 [Example 10, (R)-(4-(5-((6-(1H-imidazol-1-yl)pyridin-3-yl)ethynyl)pyrimidin-2-yl)-1-(pyrimidin-2-yl)piperazin-2-yl)methanol] | 2449 |  | ≥ 12000 | 4.9

Next, values leading:

Selectivity ratio (Assay 2/Assay 1) [1] | Ki [1, 3] [nM] | Ki [2] [nM] | Ki [1] [nM] | Compound
1314 | 0.913 | ≥ 1200 |  | OCC(F)COC[C@H]1CN(c2ncc(C#Cc3ccc(-n4ccnc4)nc3)cn2)CCN1c1ncccn1 (stereo partly drawn) [Example 63, 3-(((R)-4-(5-((6-(1H-imidazol-1-yl)pyridin-3-yl)ethynyl)pyrimidin-2-yl)-1-(pyrimidin-2-yl)piperazin-2-yl)methoxy)-2-fluoropropan-1-ol]
240 | 0.5 | 120 |  | OC[C@H]1CN(c2ccncn2)CCN1c1ncc(/C=C/c2ccc(-n3ccnc3)nc2)cn1 [Example 24, (R,E)-(1-(5-(2-(6-(1H-imidazol-1-yl)pyridin-3-yl)vinyl)pyrimidin-2-yl)-4-(pyrimidin-4-yl)piperazin-2-yl)methanol]
589 | 2.04 | ≥ 1200 |  | COC[C@H]1CN(c2ncc(C#Cc3ccc(-n4cnnc4)nc3)cn2)CCN1c1cc(F)ncn1 [Example 45, (R)-5-((6-(4H-1,2,4-triazol-4-yl)pyridin-3-yl)ethynyl)-2-(4-(6-fluoropyrimidin-4-yl)-3-(methoxymethyl)piperazin-1-yl)pyrimidine]
811 | 1.48 | ≥ 1200 |  | FCCOC[C@@H]1CN(c2ncc(C#Cc3ccc(-c4cnco4)nc3)cn2)CCN1c1ncncn1 [Example 62, (S)-5-(5-((2-(3-((2-fluoroethoxy)methyl)-4-(1,3,5-triazin-2-yl)piperazin-1-yl)pyrimidin-5-yl)ethynyl)pyridin-2-yl)oxazole]
10000 |  | 13000 | 1.3 | COC[C@H]1CN(c2cc3cnccn3c2)CCN1c1ncc(/C=C/c2ccc(-n3cccn3)nc2)cn1 [Example 21, (R,E)-7-(4-(5-(2-(6-(1H-pyrazol-1-yl)pyridin-3-yl)vinyl)pyrimidin-2-yl)-3-(methoxymethyl)piperazin-1-yl)pyrrolo[1,2-a]pyrazine]
281 | 1.6 | 450 |  | COC[C@H]1CN(c2cc(F)ccn2)CCN1c1ncc(/C=C/c2ccc(N3CCOCC3)nc2)cn1 [Example 16, (R,E)-4-(5-(2-(2-(4-(4-fluoropyridin-2-yl)-2-(methoxymethyl)piperazin-1-yl)pyrimidin-5-yl)vinyl)pyridin-2-yl)morpholine]

Source: patent publication US20260224758A1, “ALPHA-SYNUCLEIN BINDERS AND METHODS OF USE” (Merck Sharp & Dohme LLC, priority 2023, published 2026)
